Values of other authors, collected in patent US6346530B1, “Process for the preparation of a bioavailable oral dosage form of cefuroxime axetil” (Ranbaxy Laboratories Limited, priority 1999, dated 2002).

Conditions: background, result in words

Compound	Bioavailability upon oral administration
CO/N=C(\C(=O)N[C@@H]1C(=O)N2C(C(=O)OC(C)OC(C)=O)=C(COC(N)=O)CS[C@H]12)c1ccco1 (some centres unmarked) [Crystalline cefuroxime axetil, cefuroxime axetil]	does not exhibit adequate bioavailability
CO/N=C(\C(=O)N[C@@H]1C(=O)N2C(C(=O)OC(C)OC(C)=O)=C(COC(N)=O)CS[C@H]12)c1ccco1 (some centres unmarked) [amorphous form of cefuroxime axetil, cefuroxime axetil]	high bioavailability
